Laboratory results as given in the NIST ThermoML archive (doi:10.1021/je1008747).

Settings: Liquid

CCCCn1cc[n+](C)c1.[Cl-] [1-butyl-3-methylimidazolium chloride]
Settings | mass density [kg/m3]
348.15 K, 101.33 kPa | 1055.7
352.1 K, 100 kPa | 1054
352.1 K, 10000 kPa | 1058
352.1 K, 20000 kPa | 1062
352.1 K, 30000 kPa | 1067
352.1 K, 40000 kPa | 1071
352.1 K, 50000 kPa | 1074
352.1 K, 60000 kPa | 1078
352.1 K, 70000 kPa | 1082
352.1 K, 80000 kPa | 1085
352.1 K, 90000 kPa | 1089
352.1 K, 100000 kPa | 1093
352.1 K, 110000 kPa | 1096
352.1 K, 120000 kPa | 1099
352.1 K, 130000 kPa | 1102
352.1 K, 140000 kPa | 1106
352.1 K, 150000 kPa | 1109
352.1 K, 160000 kPa | 1112
352.1 K, 170000 kPa | 1115
352.1 K, 180000 kPa | 1118
352.1 K, 190000 kPa | 1121
352.1 K, 200000 kPa | 1124
353.15 K, 101.33 kPa | 1053
358.15 K, 101.33 kPa | 1050.4
363.15 K, 101.33 kPa | 1047.7
368.15 K, 101.33 kPa | 1045.1
372.4 K, 10000 kPa | 1046
372.4 K, 20000 kPa | 1050
372.4 K, 30000 kPa | 1055
372.4 K, 40000 kPa | 1059
372.4 K, 50000 kPa | 1063
372.4 K, 60000 kPa | 1067
372.4 K, 70000 kPa | 1071
372.4 K, 80000 kPa | 1074
372.4 K, 90000 kPa | 1078
372.4 K, 100000 kPa | 1081
372.4 K, 110000 kPa | 1085
372.4 K, 120000 kPa | 1088
372.4 K, 130000 kPa | 1092
372.4 K, 140000 kPa | 1095
372.4 K, 150000 kPa | 1099
372.4 K, 160000 kPa | 1102
372.4 K, 170000 kPa | 1105
372.4 K, 180000 kPa | 1108
372.4 K, 190000 kPa | 1111
372.4 K, 200000 kPa | 1115
373.15 K, 101.33 kPa | 1042.6
392.3 K, 10000 kPa | 1034
392.3 K, 20000 kPa | 1038
392.3 K, 30000 kPa | 1043
392.3 K, 40000 kPa | 1047
392.3 K, 50000 kPa | 1052
392.3 K, 60000 kPa | 1056
392.3 K, 70000 kPa | 1059
392.3 K, 80000 kPa | 1063
392.3 K, 90000 kPa | 1067
392.3 K, 100000 kPa | 1071
392.3 K, 110000 kPa | 1075
392.3 K, 120000 kPa | 1078
392.3 K, 130000 kPa | 1081
392.3 K, 140000 kPa | 1085
392.3 K, 150000 kPa | 1088
392.3 K, 160000 kPa | 1092
392.3 K, 170000 kPa | 1095
392.3 K, 180000 kPa | 1099
392.3 K, 190000 kPa | 1102
392.3 K, 200000 kPa | 1105
412.3 K, 10000 kPa | 1022
412.3 K, 20000 kPa | 1027
412.3 K, 30000 kPa | 1032
412.3 K, 40000 kPa | 1036
412.3 K, 50000 kPa | 1041
412.3 K, 60000 kPa | 1045
412.3 K, 70000 kPa | 1049
412.3 K, 80000 kPa | 1053
412.3 K, 90000 kPa | 1057
412.3 K, 100000 kPa | 1061
412.3 K, 110000 kPa | 1064
412.3 K, 120000 kPa | 1068
412.3 K, 130000 kPa | 1072
412.3 K, 140000 kPa | 1076
412.3 K, 150000 kPa | 1079
412.3 K, 160000 kPa | 1082
412.3 K, 170000 kPa | 1086
412.3 K, 180000 kPa | 1089
412.3 K, 190000 kPa | 1092
412.3 K, 200000 kPa | 1096
432.2 K, 10000 kPa | 1011
432.2 K, 20000 kPa | 1016
432.2 K, 30000 kPa | 1021
432.2 K, 40000 kPa | 1026
432.2 K, 50000 kPa | 1030
432.2 K, 60000 kPa | 1035
432.2 K, 70000 kPa | 1039
432.2 K, 80000 kPa | 1043
432.2 K, 90000 kPa | 1047
432.2 K, 100000 kPa | 1051
432.2 K, 110000 kPa | 1055
432.2 K, 120000 kPa | 1059
432.2 K, 130000 kPa | 1062
432.2 K, 140000 kPa | 1066
432.2 K, 150000 kPa | 1069
432.2 K, 160000 kPa | 1073
432.2 K, 170000 kPa | 1076
432.2 K, 180000 kPa | 1080
432.2 K, 190000 kPa | 1083
432.2 K, 200000 kPa | 1087
452 K, 10000 kPa | 1000
452 K, 20000 kPa | 1005
452 K, 30000 kPa | 1010
452 K, 40000 kPa | 1015
452 K, 50000 kPa | 1020
452 K, 60000 kPa | 1024
452 K, 70000 kPa | 1028
452 K, 80000 kPa | 1032
452 K, 90000 kPa | 1037
452 K, 100000 kPa | 1041
452 K, 110000 kPa | 1045
452 K, 120000 kPa | 1048
452 K, 130000 kPa | 1052
452 K, 140000 kPa | 1056
452 K, 150000 kPa | 1060
452 K, 160000 kPa | 1063
452 K, 170000 kPa | 1067
452 K, 180000 kPa | 1070
452 K, 190000 kPa | 1074
452 K, 200000 kPa | 1077
